{"source": "patent US10597388B2", "about": "“Pyridazinone herbicides” (FMC CORPORATION, priority 2014, dated 2020)", "assay_type_in_all_cases": "in vivo", "key": {"[1]": {"test_system": "chickweed (common chickweed, Stellaria media)", "assay": "Test C greenhouse herbicide test, postemergence", "in_short": "(§1)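 Postemergence foliar treatment, 1- to 4-leaf stage (2–18 cm), peat/vermiculite medium; greenhouse 13–15 d; visual rating vs controls, 0 = no effect, 100 = complete control; dash = no result.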"}, "kochia (Kochia scoparia)": {"test_system": "kochia (Kochia scoparia)", "assay": "Test C greenhouse herbicide test, postemergence", "in_short": "as §1"}, "[2]": {"test_system": "oat, wild (wild oat, Avena fatua)", "assay": "Test C greenhouse herbicide test, postemergence", "in_short": "as §1"}, "[3]": {"test_system": "ryegrass, Italian (Italian ryegrass, Lolium multiflorum)", "assay": "Test C greenhouse herbicide test, pre- and postemergence", "in_short": "(§2)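 Seeds sown in loam–sand blend treated preemergence; plants in peat-based medium sprayed postemergence at 2–18 cm (1- to 4-leaf stage); chemicals in non-phytotoxic solvent with surfactant. Greenhouse 13–15 d, then visual rating versus controls on 0–100 scale (0 no effect, 100 complete control).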"}, "soybean (Glycine max)": {"test_system": "soybean (Glycine max)", "assay": "Test C greenhouse herbicide test, pre- and postemergence", "in_short": "as §2"}, "[4]": {"test_system": "pigweed (Amaranthus retroflexus)", "assay": "Test C greenhouse herbicide test, pre- and postemergence", "in_short": "as §2"}, "[5]": {"test_system": "blackgrass (Alopecurus myosuroides)", "assay": "Test C greenhouse herbicide test, pre- and postemergence", "in_short": "as §2"}, "[6]": {"test_system": "galium (catchweed bedstraw, Galium aparine)", "assay": "Test C greenhouse herbicide test, pre- and postemergence", "in_short": "as §2"}, "[7]": {"test_system": "barnyardgrass (Echinochloa crus-galli)", "assay": "Test C greenhouse herbicide test, pre- and postemergence", "in_short": "as §2"}, "[8]": {"test_system": "nutsedge, yellow (yellow nutsedge, Cyperus esculentus)", "assay": "Test C greenhouse herbicide test, pre- and postemergence", "in_short": "as §2"}, "[9]": {"test_system": "ragweed (common ragweed, Ambrosia elatior)", "assay": "Test C greenhouse herbicide test, pre- and postemergence", "in_short": "as §2"}, "[10]": {"test_system": "velvetleaf (Abutilon theophrasti)", "assay": "Test C greenhouse herbicide test, pre- and postemergence", "in_short": "as §2"}, "[11]": {"test_system": "blackgrass (Alopecurus myosuroides)", "assay": "Test A greenhouse herbicide test, postemergence", "in_short": "(§3)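 Visual injury score, 0 (no effect) to 100 (complete control), versus untreated controls roughly 10 d after postemergence spray; plants at one- to two-leaf stage, 2 to 10 cm tall, in loam soil and sand, kept in greenhouse.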"}, "[12]": {"test_system": "galium (catchweed bedstraw, Galium aparine)", "assay": "Test A greenhouse herbicide test, postemergence", "in_short": "as §3"}, "[13]": {"settings": "Postemergence, 31 g ai/ha, 0 to 100 scale (0 no effect, 100 complete control)"}, "[14]": {"settings": "Postemergence, 125 g ai/ha, scale 0 to 100, 0 is no effect, 100 is complete control"}, "[15]": {"settings": "Postemergence, 250 g ai/ha, scale 0 to 100, 0 no effect, 100 complete control, 13 to 15 d"}, "[16]": {"settings": "postemergence, 62 g ai/ha, scale 0 to 100, 0 no effect, 100 complete control"}, "[17]": {"settings": "Preemergence, 31 g ai/ha, scale 0 to 100, 0 is no effect, 100 is complete control"}, "[18]": {"settings": "Preemergence, 62 g ai/ha, scale 0 to 100, 0 is no effect, 100 is complete control"}, "[19]": {"settings": "Preemergence, 125 g ai/ha, scale 0 to 100, 0 is no effect, 100 is complete control"}, "[20]": {"settings": "Preemergence, 250 g ai/ha, scale 0 to 100, 0 no effect, 100 complete control"}, "[21]": {"settings": "125 g ai/ha, 0 to 100 scale where 0 is no effect and 100 is complete control"}, "[22]": {"settings": "500 g ai/ha, 0 to 100 scale, 0 is no effect, 100 is complete control"}}, "data": [{"compound": "Cc1ccc2sc(Br)c(-c3c(O)c(C)nn(C)c3=O)c2c1", "note": "[Compound 79]", "values": [{"measurement": "Chickweed plant response rating", "setting": "[1]; [13]", "result": 90}, {"measurement": "Plant response rating, Chickweed", "setting": "[1]; [14]", "result": 90}, {"measurement": "Plant response rating, Chickweed", "setting": "[1]; [15]", "result": 90}, {"measurement": "Chickweed plant response rating", "setting": "[1]; [16]", "result": 90}, {"measurement": "Kochia plant response rating", "setting": "kochia (Kochia scoparia); [13]", "result": 50}, {"measurement": "Plant response rating, Kochia", "setting": "kochia (Kochia scoparia); [14]", "result": 90}, {"measurement": "Plant response rating, Kochia", "setting": "kochia (Kochia scoparia); [15]", "result": 90}, {"measurement": "Kochia plant response rating", "setting": "kochia (Kochia scoparia); [16]", "result": 90}, {"measurement": "Oat, Wild plant response rating", "setting": "[2]; [13]", "result": 50}, {"measurement": "Plant response rating, Oat, Wild", "setting": "[2]; [14]", "result": 85}, {"measurement": "Plant response rating, Oat, Wild", "setting": "[2]; [15]", "result": 90}, {"measurement": "Oat, Wild plant response rating", "setting": "[2]; [16]", "result": 60}, {"measurement": "Ryegrass, Italian plant response rating", "setting": "[3]; [13]", "result": 50}, {"measurement": "Plant response rating, Ryegrass, Italian", "setting": "[3]; [14]", "result": 85}, {"measurement": "Plant response rating, Ryegrass, Italian", "setting": "[3]; [15]", "result": 85}, {"measurement": "Plant response rating, Ryegrass, Italian", "setting": "[3]; [17]", "result": 20}, {"measurement": "Plant response rating, Ryegrass, Italian", "setting": "[3]; [18]", "result": 90}, {"measurement": "Plant response rating, Ryegrass, Italian", "setting": "[3]; [19]", "result": 90}, {"measurement": "Ryegrass, Italian plant response rating", "setting": "[3]; [20]", "result": 90}, {"measurement": "Ryegrass, Italian plant response rating", "setting": "[3]; [16]", "result": 60}, {"measurement": "Soybean plant response rating", "setting": "soybean (Glycine max); [13]", "result": 0}, {"measurement": "Plant response rating, Soybean", "setting": "soybean (Glycine max); [14]", "result": 5}, {"measurement": "Plant response rating, Soybean", "setting": "soybean (Glycine max); [15]", "result": 5}, {"measurement": "Plant response rating, Soybean", "setting": "soybean (Glycine max); [17]", "result": 0}, {"measurement": "Plant response rating, Soybean", "setting": "soybean (Glycine max); [18]", "result": 0}, {"measurement": "Plant response rating, Soybean", "setting": "soybean (Glycine max); [19]", "result": 5}, {"measurement": "Soybean plant response rating", "setting": "soybean (Glycine max); [20]", "result": 0}, {"measurement": "Soybean plant response rating", "setting": "soybean (Glycine max); [16]", "result": 0}, {"measurement": "Pigweed plant response rating", "setting": "[4]; [13]", "result": 90}, {"measurement": "Plant response rating, Pigweed", "setting": "[4]; [14]", "result": 98}, {"measurement": "Plant response rating, Pigweed", "setting": "[4]; [15]", "result": 98}, {"measurement": "Plant response rating, Pigweed", "setting": "[4]; [17]", "result": 100}, {"measurement": "Plant response rating, Pigweed", "setting": "[4]; [18]", "result": 100}, {"measurement": "Plant response rating, Pigweed", "setting": "[4]; [19]", "result": 100}, {"measurement": "Pigweed plant response rating", "setting": "[4]; [20]", "result": 100}, {"measurement": "Pigweed plant response rating", "setting": "[4]; [16]", "result": 98}, {"measurement": "Blackgrass plant response rating", "setting": "[5]; [13]", "result": 5}, {"measurement": "Plant response rating, Blackgrass", "setting": "[5]; [14]", "result": 35}, {"measurement": "Plant response rating, Blackgrass", "setting": "[5]; [15]", "result": 50}, {"measurement": "Plant response rating, Blackgrass", "setting": "[5]; [17]", "result": 20}, {"measurement": "Plant response rating, Blackgrass", "setting": "[5]; [18]", "result": 50}, {"measurement": "Plant response rating, Blackgrass", "setting": "[5]; [19]", "result": 60}, {"measurement": "Blackgrass plant response rating", "setting": "[5]; [20]", "result": 85}, {"measurement": "Blackgrass plant response rating", "setting": "[5]; [16]", "result": 10}, {"measurement": "Galium plant response rating", "setting": "[6]; [13]", "result": 95}, {"measurement": "Plant response rating, Galium", "setting": "[6]; [14]", "result": 95}, {"measurement": "Plant response rating, Galium", "setting": "[6]; [15]", "result": 95}, {"measurement": "Plant response rating, Galium", "setting": "[6]; [17]", "result": 95}, {"measurement": "Plant response rating, Galium", "setting": "[6]; [18]", "result": 95}, {"measurement": "Plant response rating, Galium", "setting": "[6]; [19]", "result": 95}, {"measurement": "Galium plant response rating", "setting": "[6]; [20]", "result": 98}, {"measurement": "Galium plant response rating", "setting": "[6]; [16]", "result": 95}, {"measurement": "Barnyardgrass plant response rating", "setting": "[7]; [13]", "result": 20}, {"measurement": "Plant response rating, Barnyardgrass", "setting": "[7]; [14]", "result": 30}, {"measurement": "Plant response rating, Barnyardgrass", "setting": "[7]; [15]", "result": 40}, {"measurement": "Plant response rating, Barnyardgrass", "setting": "[7]; [17]", "result": 10}, {"measurement": "Plant response rating, Barnyardgrass", "setting": "[7]; [18]", "result": 15}, {"measurement": "Plant response rating, Barnyardgrass", "setting": "[7]; [19]", "result": 65}, {"measurement": "Barnyardgrass plant response rating", "setting": "[7]; [20]", "result": 85}, {"measurement": "Barnyardgrass plant response rating", "setting": "[7]; [16]", "result": 25}, {"measurement": "Nutsedge, Yellow plant response rating", "setting": "[8]; [13]", "result": 85}, {"measurement": "Plant response rating, Nutsedge, Yellow", "setting": "[8]; [14]", "result": 80}, {"measurement": "Plant response rating, Nutsedge, Yellow", "setting": "[8]; [15]", "result": 85}, {"measurement": "Plant response rating, Nutsedge, Yellow", "setting": "[8]; [17]", "result": 25}, {"measurement": "Plant response rating, Nutsedge, Yellow", "setting": "[8]; [18]", "result": 45}, {"measurement": "Plant response rating, Nutsedge, Yellow", "setting": "[8]; [19]", "result": 90}, {"measurement": "Nutsedge, Yellow plant response rating", "setting": "[8]; [20]", "result": 90}, {"measurement": "Nutsedge, Yellow plant response rating", "setting": "[8]; [16]", "result": 80}, {"measurement": "Ragweed plant response rating", "setting": "[9]; [13]", "result": 90}, {"measurement": "Plant response rating, Ragweed", "setting": "[9]; [14]", "result": 98}, {"measurement": "Plant response rating, Ragweed", "setting": "[9]; [15]", "result": 98}, {"measurement": "Plant response rating, Ragweed", "setting": "[9]; [17]", "result": 90}, {"measurement": "Plant response rating, Ragweed", "setting": "[9]; [18]", "result": 95}, {"measurement": "Plant response rating, Ragweed", "setting": "[9]; [19]", "result": 98}, {"measurement": "Ragweed plant response rating", "setting": "[9]; [20]", "result": 100}, {"measurement": "Ragweed plant response rating", "setting": "[9]; [16]", "result": 95}, {"measurement": "Velvetleaf plant response rating", "setting": "[10]; [13]", "result": 75}, {"measurement": "Plant response rating, Velvetleaf", "setting": "[10]; [14]", "result": 90}, {"measurement": "Plant response rating, Velvetleaf", "setting": "[10]; [15]", "result": 90}, {"measurement": "Plant response rating, Velvetleaf", "setting": "[10]; [17]", "result": 80}, {"measurement": "Plant response rating, Velvetleaf", "setting": "[10]; [18]", "result": 85}, {"measurement": "Plant response rating, Velvetleaf", "setting": "[10]; [19]", "result": 95}, {"measurement": "Velvetleaf plant response rating", "setting": "[10]; [20]", "result": 95}, {"measurement": "Velvetleaf plant response rating", "setting": "[10]; [16]", "result": 85}, {"measurement": "Plant response rating, Blackgrass", "setting": "[11]; [21]", "result": 70}, {"measurement": "Blackgrass plant response rating", "setting": "[11]; [22]", "result": 80}, {"measurement": "Plant response rating, Galium", "setting": "[12]; [21]", "result": 90}, {"measurement": "Galium plant response rating", "setting": "[12]; [22]", "result": 90}]}]}
